# ChEMBL document CHEMBL1201862, “PubChem BioAssay data set” (2004)
#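 96-well plates; 48 h exposure; 5 concentrations. Endpoints by linear interpolation between flanking doses. Not reached: highest tested concentration assigned. GI50 is the concentration that inhibits growth by half.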 Calls of active or inactive are those of the source. Rule as the data show it: active = GI50 up to about 1.1 µM and inactive = higher.
# Assays:
# Assay in all cases: inhibition of tumour cell growth, NCI panel, 48 h
# [1] = system: 786-0
# [2] = system: A498
# [3] = system: A549
# [4] = system: ACHN
# [5] = system: CAKI-1
# [6] = system: CCRF-CEM
# [7] = system: COLO 205
# [8] = system: DU-145
# [9] = system: EKVX
# [10] = system: HCC 2998
# [11] = system: HCT-116
# [12] = system: HCT-15
# [13] = system: HL-60
# [14] = system: HOP-62
# [15] = system: HT-29
# [16] = system: Hs-578T
# [17] = system: IGROV-1
# [18] = system: K562
# [19] = system: KM12
# [20] = system: MDA-MB-231
# [21] = system: MDA-MB-435
# [22] = system: MDA-N
# [23] = system: MOLT-4
# [24] = system: Malme-3M
# [25] = system: NCI-H226
# [26] = system: NCI-H23
# [27] = system: NCI-H460
# [28] = system: NCI-H522
# [29] = system: NCI/ADR-RES
# [30] = system: OVCAR-3
# [31] = system: OVCAR-5
# [32] = system: OVCAR-8
# [33] = system: PC-3
# [34] = system: RPMI-8226
# [35] = system: RXF 393
# [36] = system: SF-268
# [37] = system: SF-539
# [38] = system: SK-MEL-28
# [39] = system: SK-MEL-2
# [40] = system: SK-MEL-5
# [41] = system: SK-OV-3
# [42] = system: SN12C
# [43] = system: SNB-19
# [44] = system: SR
# [45] = system: SW-620
# [46] = system: T47D
# [47] = system: TK-10
# [48] = system: U-251
# [49] = system: UACC-62
# [50] = system: UO-31
# [51] = system: HOP-92
# [52] = system: LOX IMVI
# [53] = system: M14
# [54] = system: MCF7
# [55] = system: OVCAR-4
# [56] = system: SF-295
# [57] = system: SNB-75
# [58] = system: UACC-257
smiles,measurement,setting,value
CNC(=O)/C(C#N)=C(\N)N1CCCC1,GI50,[1],> 100 µM (inactive)
same,GI50,[2],> 100 µM (inactive)
same,GI50,[3],> 100 µM (inactive)
same,GI50,[4],> 100 µM (inactive)
same,GI50,[5],> 100 µM (inactive)
same,GI50,[6],> 100 µM (inactive)
same,GI50,[7],> 100 µM (inactive)
same,GI50,[8],> 100 µM (inactive)
same,GI50,[9],> 100 µM (inactive)
same,GI50,[10],> 100 µM (inactive)
same,GI50,[11],> 100 µM (inactive)
same,GI50,[12],> 100 µM
same,GI50,[13],> 100 µM (inactive)
same,GI50,[14],> 100 µM (inactive)
same,GI50,[15],> 100 µM (inactive)
same,GI50,[16],> 100 µM (inactive)
same,GI50,[17],> 100 µM (inactive)
same,GI50,[18],> 100 µM (inactive)
same,GI50,[19],> 100 µM (inactive)
same,GI50,[20],> 100 µM (inactive)
same,GI50,[21],> 100 µM (inactive)
same,GI50,[22],> 100 µM (inactive)
same,GI50,[23],> 100 µM (inactive)
same,GI50,[24],> 100 µM (inactive)
same,GI50,[25],> 100 µM (inactive)
same,GI50,[26],> 100 µM (inactive)
same,GI50,[27],> 100 µM (inactive)
same,GI50,[28],> 100 µM (inactive)
same,GI50,[29],> 100 µM (inactive)
same,GI50,[30],> 100 µM (inactive)
same,GI50,[31],> 100 µM (inactive)
same,GI50,[32],> 100 µM (inactive)
same,GI50,[33],> 100 µM (inactive)
same,GI50,[34],> 100 µM (inactive)
same,GI50,[35],> 100 µM (inactive)
same,GI50,[36],> 100 µM (inactive)
same,GI50,[37],> 100 µM (inactive)
same,GI50,[38],> 100 µM (inactive)
same,GI50,[39],> 100 µM (inactive)
same,GI50,[40],> 100 µM (inactive)
same,GI50,[41],> 100 µM (inactive)
same,GI50,[42],> 100 µM (inactive)
same,GI50,[43],> 100 µM (inactive)
same,GI50,[44],> 100 µM (inactive)
same,GI50,[45],> 100 µM (inactive)
same,GI50,[46],> 100 µM (inactive)
same,GI50,[47],> 100 µM (inactive)
same,GI50,[48],> 100 µM (inactive)
same,GI50,[49],> 100 µM (inactive)
same,GI50,[50],> 100 µM (inactive)
c1ccc(CNc2ncnc3nn[nH]c23)cc1,GI50,[1],> 100 µM (inactive)
same,GI50,[2],34 µM (inactive)
same,GI50,[3],> 100 µM (inactive)
same,GI50,[4],> 100 µM (inactive)
same,GI50,[5],> 100 µM (inactive)
same,GI50,[6],> 100 µM (inactive)
same,GI50,[7],> 100 µM (inactive)
same,GI50,[8],> 100 µM (inactive)
same,GI50,[9],> 100 µM (inactive)
same,GI50,[10],> 100 µM (inactive)
same,GI50,[11],> 100 µM (inactive)
same,GI50,[12],> 100 µM
same,GI50,[13],> 100 µM (inactive)
same,GI50,[14],> 100 µM (inactive)
same,GI50,[51],56.8 µM (inactive)
same,GI50,[15],> 100 µM (inactive)
same,GI50,[17],> 100 µM (inactive)
same,GI50,[18],> 100 µM (inactive)
same,GI50,[19],> 100 µM (inactive)
same,GI50,[52],> 100 µM (inactive)
same,GI50,[53],> 100 µM (inactive)
same,GI50,[54],> 100 µM (inactive)
same,GI50,[20],> 100 µM (inactive)
same,GI50,[21],> 100 µM (inactive)
same,GI50,[22],> 100 µM (inactive)
same,GI50,[23],> 100 µM (inactive)
same,GI50,[24],> 100 µM (inactive)
same,GI50,[25],> 100 µM (inactive)
same,GI50,[26],> 100 µM (inactive)
same,GI50,[28],> 100 µM (inactive)
same,GI50,[29],> 100 µM (inactive)
same,GI50,[30],> 100 µM (inactive)
same,GI50,[55],> 100 µM (inactive)
same,GI50,[31],> 100 µM (inactive)
same,GI50,[32],> 100 µM (inactive)
same,GI50,[33],> 100 µM (inactive)
same,GI50,[35],> 100 µM (inactive)
same,GI50,[56],> 100 µM (inactive)
same,GI50,[37],> 100 µM (inactive)
same,GI50,[38],> 100 µM (inactive)
same,GI50,[39],> 100 µM (inactive)
same,GI50,[40],> 100 µM (inactive)
same,GI50,[41],> 100 µM (inactive)
same,GI50,[42],> 100 µM (inactive)
same,GI50,[43],> 100 µM (inactive)
same,GI50,[57],> 100 µM (inactive)
same,GI50,[45],> 100 µM (inactive)
same,GI50,[46],> 100 µM (inactive)
same,GI50,[47],> 100 µM (inactive)
same,GI50,[48],> 100 µM (inactive)
same,GI50,[58],> 100 µM (inactive)
same,GI50,[49],> 100 µM (inactive)
same,GI50,[50],91 µM (inactive)
OC[C@H]1C[C@@H]2Cc3ccccc3N2N1,GI50,[1],> 100 µM (inactive)
same,GI50,[2],> 100 µM (inactive)
same,GI50,[3],> 100 µM (inactive)
same,GI50,[4],> 100 µM (inactive)
same,GI50,[5],> 100 µM (inactive)
same,GI50,[6],> 100 µM (inactive)
same,GI50,[7],> 100 µM (inactive)
same,GI50,[8],> 100 µM (inactive)
same,GI50,[9],> 100 µM (inactive)
same,GI50,[10],> 100 µM (inactive)
same,GI50,[11],> 100 µM (inactive)
same,GI50,[12],> 100 µM
same,GI50,[13],> 100 µM (inactive)
same,GI50,[14],> 100 µM (inactive)
same,GI50,[51],> 100 µM (inactive)
same,GI50,[15],> 100 µM (inactive)
same,GI50,[16],> 100 µM (inactive)
same,GI50,[17],> 100 µM (inactive)
same,GI50,[18],> 100 µM (inactive)
same,GI50,[19],> 100 µM (inactive)
same,GI50,[52],> 100 µM (inactive)
same,GI50,[53],> 100 µM (inactive)
same,GI50,[20],> 100 µM (inactive)
same,GI50,[21],> 100 µM (inactive)
same,GI50,[22],> 100 µM (inactive)
same,GI50,[23],> 100 µM (inactive)
same,GI50,[24],> 100 µM (inactive)
same,GI50,[25],> 100 µM (inactive)
same,GI50,[26],> 100 µM (inactive)
same,GI50,[27],> 100 µM (inactive)
same,GI50,[28],> 100 µM (inactive)
same,GI50,[29],> 100 µM (inactive)
same,GI50,[30],> 100 µM (inactive)
same,GI50,[55],> 100 µM (inactive)
same,GI50,[31],> 100 µM (inactive)
same,GI50,[32],> 100 µM (inactive)
same,GI50,[33],> 100 µM (inactive)
same,GI50,[35],> 100 µM (inactive)
same,GI50,[36],> 100 µM (inactive)
same,GI50,[56],> 100 µM (inactive)
same,GI50,[37],> 100 µM (inactive)
same,GI50,[38],> 100 µM (inactive)
same,GI50,[39],> 100 µM (inactive)
same,GI50,[40],> 100 µM (inactive)
same,GI50,[41],> 100 µM (inactive)
same,GI50,[42],> 100 µM (inactive)
same,GI50,[43],> 100 µM (inactive)
same,GI50,[57],> 100 µM (inactive)
same,GI50,[44],> 100 µM (inactive)
same,GI50,[45],> 100 µM (inactive)
same,GI50,[46],> 100 µM (inactive)
same,GI50,[47],> 100 µM (inactive)
same,GI50,[48],> 100 µM (inactive)
same,GI50,[58],> 100 µM (inactive)
same,GI50,[49],> 100 µM (inactive)
